According to patent US8158623B2, “Heptacyclic compounds and the pharmaceutical uses thereof for preventing and treating diabetes and metabolic syndrome” (Shanghai Institute of Materia Medica Chinese Academy of …, priority 2007, dated 2012):

What was measured:
ob/ob mice [1] = assay: Hypoglycemic effect of the combination of F7 with Glibenclamide; assay type: in vivo; details: Glibenclamide 25 mg/kg oral, with or without F7 50 mg/kg oral pretreatment for 10 days
Method: (§1) Genetic spontaneous diabetes ob/ob mice were purchased from Jackson (USA), and maintained in a SPF facility (temperature: 22-24° C., humidity: 45-80%, illumination: 150-300 Lx, 12/12-hour light/dark cycle). Fasting blood glucose was determined daily for 3 days continuously when the mice were 7 weeks old. The mice were grouped into the pretreatment group of Compound F7 and non-pretreatment group (16 animals per group) according to the results determined. The groups were administered orally with compound F7 (50 mg/kg) or a solution of 0.1% Tween 80 respectively, once daily for 10 days. The pretreatment group and the non-pretreatment group were divided into two subsets (8 animals per subset) respectively, and subcutaneously injected with insulin (0.6 U/kg) or orally administered with Glibenclamide (25 mg/kg) respectively. Then, blood glucose levels were measured at different time points and the percentage of change in blood glucose level was calculated.

ob/ob mice [2] = assay: Hypoglycemic effect of the combination of F7 with insulin; assay type: in vivo; details: insulin 0.6 U/kg s.c., with or without F7 50 mg/kg oral pretreatment for 10 days
Method: as §1

| Molecule | The percentage of change in blood glucose level (ob/ob mice [1]; 1 h) | The percentage of change in blood glucose level (ob/ob mice [1]; 2 h) | The percentage of change in blood glucose level (ob/ob mice [1]; 3 h) | The percentage of change in blood glucose level (ob/ob mice [2]; 15 minutes) | The percentage of change in blood glucose level (ob/ob mice [2]; 40 minutes) | The percentage of change in blood glucose level (ob/ob mice [2]; 90 minutes) | The percentage of change in blood glucose level (ob/ob mice [2]; 120 minutes) |
| --- | --- | --- | --- | --- | --- | --- | --- |
| COc1ccc(Cl)cc1C(=O)NCCc1ccc(S(=O)(=O)NC(=O)NC2CCCCC2)cc1 [Glibenclamide] | 90.2 ± 7.3% | 76.7 ± 10.2% | 68.0 ± 7.3% | – | – | – | – |
| Insulin | – | – | – | 113.9 ± 8.3% | 96.3 ± 18.0% | 90.6 ± 14.7% | 101.6 ± 11.2% |
